# Test results as given in PubChem BioAssay AID1259411 (Chemical Carcinogenesis Research Information System (CCRIS), 2018).
# Active and inactive are the calls of the source. No rule for the calls is given here.
# Tested on: rodent carcinogenicity bioassays, tumor incidence
# Test: CCRIS carcinogenicity studies
# Outline: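 Archive of carcinogenicity, mutagenicity, tumor promotion and tumor inhibition results drawn from journals, NCI reports and other sources, expert-reviewed; covers 1985-2011 and is no longer updated.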
structure (smiles),measurement,setting,value
O=c1ccc(=O)[nH][nH]1,carcinogen call,"Species: MOUSE, Strain/Sex: ICR/HA SWISS/FEMALE, Route: SUBCUTANEOUS, Dose: 0, 0.5 MG IN 0.1 ML WATER ON D 1 AND 7 OF AGE THEN 0, 1 MG IN 0.2 ML ON D 14 AND 21 FOR A TOTAL DOSE OF 0, 3 MG (STUDY D, Dose: 0, 0.5 MG IN 0.1 ML WATER ON D 1 AND 7 OF AGE THEN 0, 1 MG IN 0.2 ML ON D 14 AND 21 FOR A TOTAL DOSE OF 0, 3 MG (STUDY D",inactive; negative
same,carcinogen call,"Species: MOUSE, Strain/Sex: ICR/HA SWISS/FEMALE, Route: SUBCUTANEOUS, Dose: 0, 5 MG IN 0.1 ML TRICAPRYLIN SUSPENSION ON D 1 OF AGE THEN 0, 10 MG IN 0.1 ML ON D 7, 0, 20 MG IN 0.2 ML ON D 14 AND 21, Dose: 0, 5 MG IN 0.1 ML TRICAPRYLIN SUSPENSION ON D 1 OF AGE THEN 0, 10 MG IN 0.1 ML ON D 7, 0, 20 MG IN 0.2 ML ON D 14 AND 21",inactive; negative
same,carcinogen call,"Species: MOUSE, Strain/Sex: ICR/HA SWISS/MALE, Route: SUBCUTANEOUS, Dose: 0, 5 MG IN 0.1 ML TRICAPRYLIN SUSPENSION ON D 1 OF AGE THEN 0, 10 MG IN 0.1 ML ON D 7, 0, 20 MG IN 0.2 ML ON D 14 AND 21, Dose: 0, 5 MG IN 0.1 ML TRICAPRYLIN SUSPENSION ON D 1 OF AGE THEN 0, 10 MG IN 0.1 ML ON D 7, 0, 20 MG IN 0.2 ML ON D 14 AND 21, Tumor Site: Type of Lesion: LIVER: HEPATOMA",active; positive
Nc1cc(Cl)ccc1O,carcinogen call,"Species: Rat, Strain/Sex: F344/DuCrlCrlj / Female, Route: Oral, Dose: 0, 1280, 3200, 8000 ppm in diet for 2 yr study duration, Dose: 0, 1280, 3200, 8000 ppm in diet for 2 yr study duration, Tumor Site: Type of Lesion: Forestomach: squamous cell papilloma/carcinoma",active; positive
same,carcinogen call,"Species: Rat, Strain/Sex: F344/DuCrlCrlj / Male, Route: Oral, Dose: 0, 1280, 3200, 8000 ppm in diet for 2 yr study duration, Dose: 0, 1280, 3200, 8000 ppm in diet for 2 yr study duration, Tumor Site: Type of Lesion: Forestomach: squamous cell papilloma/carcinoma. Urinary bladder: papilloma/carcinoma",active; positive
O=P(O)(O)CCCl,carcinogen call,"Species: Mouse, Strain/Sex: CD-1 albino/Female (20 or 50/Group), Route: Oral, Dose: 0, 100, 1000, 10,000 ppm of 70.6-72.1% ethephon for 52 (20/Group) wks and 78 (50/Group) wks, Dose: 0, 100, 1000, 10,000 ppm of 70.6-72.1% ethephon for 52 (20/Group) wks and 78 (50/Group) wks",inactive; negative
same,carcinogen call,"Species: Mouse, Strain/Sex: CD-1 albino/Male (20 or 50/Group), Route: Oral, Dose: 0, 100, 1000, 10,000 ppm of 70.6-72.1% ethephon for 52 (20/Group) wks and 78 (50/Group) wks, Dose: 0, 100, 1000, 10,000 ppm of 70.6-72.1% ethephon for 52 (20/Group) wks and 78 (50/Group) wks",inactive; negative
same,carcinogen call,"Species: Rat, Strain/Sex: Sprague-Dawley CD/Female (30 or 50/Group), Route: Oral, Dose: 0, 300, 3000, 10,000, 30,000 ppm of 70.6-72.1% ethephon for 104 wks, study duration 104 wks, Dose: 0, 300, 3000, 10,000, 30,000 ppm of 70.6-72.1% ethephon for 104 wks, study duration 104 wks",inactive; negative
same,carcinogen call,"Species: Rat, Strain/Sex: Sprague-Dawley CD/Male (30 or 50/Group), Route: Oral, Dose: 0, 300, 3000, 10,000, 30,000 ppm of 70.6-72.1% ethephon for 97 wks, study duration 97 wks, Dose: 0, 300, 3000, 10,000, 30,000 ppm of 70.6-72.1% ethephon for 97 wks, study duration 97 wks",inactive; negative
NC(=O)c1ccccc1C(N)=O,carcinogen call,"Species: MOUSE, Strain/Sex: B6C3F1/FEMALE, Route: ORAL, Dose: 0, 6200, 12500, 25000 PPM IN DIET FOR 103-105 WK, Dose: 0, 6200, 12500, 25000 PPM IN DIET FOR 103-105 WK",inactive; negative
same,carcinogen call,"Species: MOUSE, Strain/Sex: B6C3F1/MALE, Route: ORAL, Dose: 0, 25000, 50000 PPM IN DIET FOR 105 WK, Dose: 0, 25000, 50000 PPM IN DIET FOR 105 WK",inactive; negative
same,carcinogen call,"Species: RAT, Strain/Sex: F344/FEMALE, Route: ORAL, Dose: 0, 5000, 10000 PPM IN DIET FOR 106 WK, Dose: 0, 5000, 10000 PPM IN DIET FOR 106 WK",inactive; negative
same,carcinogen call,"Species: RAT, Strain/Sex: F344/MALE, Route: ORAL, Dose: 0, 15000, 30000 PPM IN DIET FOR 106 WK, Dose: 0, 15000, 30000 PPM IN DIET FOR 106 WK",inactive; negative
O=C1OC(=O)c2ccccc21,carcinogen call,"Species: MOUSE, Strain/Sex: B6C3F1/FEMALE, Route: ORAL, Dose: 0, 12019, 24038 PPM IN DIET, TWA (STUDY DURATION: 104 WK), Dose: 0, 12019, 24038 PPM IN DIET, TWA (STUDY DURATION: 104 WK)",inactive; negative
same,carcinogen call,"Species: MOUSE, Strain/Sex: B6C3F1/MALE, Route: ORAL, Dose: 0, 16346, 32692 PPM IN DIET, TWA (STUDY DURATION: 104 WK), Dose: 0, 16346, 32692 PPM IN DIET, TWA (STUDY DURATION: 104 WK)",inactive; negative
same,carcinogen call,"Species: RAT, Strain/Sex: F344/FEMALE, Route: ORAL, Dose: 0, 7500, 15000 PPM IN DIET FOR 105 WK, Dose: 0, 7500, 15000 PPM IN DIET FOR 105 WK",inactive; negative
same,carcinogen call,"Species: RAT, Strain/Sex: F344/MALE, Route: ORAL, Dose: 0, 7500, 15000 PPM IN DIET FOR 105 WK, Dose: 0, 7500, 15000 PPM IN DIET FOR 105 WK",inactive; negative
Cn1cnc([N+](=O)[O-])c1Sc1ncnc2nc[nH]c12,carcinogen call,"Species: MOUSE, Strain/Sex: B6C3F1/FEMALE, Route: ORAL, Dose: 0, 5, 20 PPM IN DIET FOR 100 WK (STUDY DURATION: 100 WK), Dose: 0, 5, 20 PPM IN DIET FOR 100 WK (STUDY DURATION: 100 WK), Tumor Site: Type of Lesion: HEMATOPOIETIC SYSTEM: LYMPHOMA, UTERUS: HEMANGIODOTHELIOMA",active; positive
same,carcinogen call,"Species: MOUSE, Strain/Sex: B6C3F1/MALE, Route: ORAL, Dose: 0, 5, 20 PPM IN DIET FOR 100 WK (STUDY DURATION: 100 WK), Dose: 0, 5, 20 PPM IN DIET FOR 100 WK (STUDY DURATION: 100 WK)",inactive; negative
same,carcinogen call,"Species: MOUSE, Strain/Sex: SWISS/MALE,FEMALE, Route: INTRAPERITONEAL, Dose: 40 MG/KG IN NAOH-SALINE 1/D ON D 1-4 AFTER BIRTH, Tumor Site: Type of Lesion: HEMATOPOIETIC SYSTEM (LEUKEMIA)",active; positive
same,carcinogen call,"Species: RAT, Strain/Sex: F344/MALE,FEMALE, Route: ORAL, Dose: 150 MG/KG IN DIET FOR 52 WK, Tumor Site: Type of Lesion: EAR: SQUAMOUS CELL CARCINOMA",active; positive
same,carcinogen call,"Species: RAT, Strain/Sex: SPRAGUE-DAWLEY/FEMALE, Route: ORAL, Dose: 1.5, 2.2 G/RAT IN DIET (ESTIMATED TOTAL), Tumor Site: Type of Lesion: THYMUS GLAND: LYMPHOMA, EAR (DUCT): SQUAMOUS CELL CARCINOMA",active; positive
O=[N+]([O-])c1ccccc1,carcinogen call,"Species: MOUSE, Strain/Sex: B6C3F1/FEMALE, Route: INHALATION, Dose: 0, 5, 25, 50 PPM 6 HR/D 5 D/WK FOR 2 YR (STUDY DURATION: 2 YR), Dose: 0, 5, 25, 50 PPM 6 HR/D 5 D/WK FOR 2 YR (STUDY DURATION: 2 YR), Tumor Site: Type of Lesion: MAMMARY GLAND: ADENOCARCINOMA",active; positive
same,carcinogen call,"Species: MOUSE, Strain/Sex: B6C3F1/MALE, Route: INHALATION, Dose: 0, 5, 25, 50 PPM 6 HR/D 5 D/WK FOR 2 YR (STUDY DURATION: 2 YR), Dose: 0, 5, 25, 50 PPM 6 HR/D 5 D/WK FOR 2 YR (STUDY DURATION: 2 YR), Tumor Site: Type of Lesion: LUNG: ADENOMA, ADENOMA OR CARCINOMA, THYROID GLAND: FOLLICULAR CELL ADENOMA",active; positive
same,carcinogen call,"Species: RAT, Strain/Sex: F344/FEMALE, Route: INHALATION, Dose: 0, 1, 5, 25 PPM 6 HR/D 5 D/WK FOR 2 YR (STUDY DURATION: 2 YR), Dose: 0, 1, 5, 25 PPM 6 HR/D 5 D/WK FOR 2 YR (STUDY DURATION: 2 YR), Tumor Site: Type of Lesion: UTERUS: ENDOMETRIAL STROMAL POLYP",active; positive
same,carcinogen call,"Species: RAT, Strain/Sex: F344/MALE, Route: INHALATION, Dose: 0, 1, 5, 25 PPM 6 HR/D 5 D/WK FOR 2 YR (STUDY DURATION: 2 YR), Dose: 0, 1, 5, 25 PPM 6 HR/D 5 D/WK FOR 2 YR (STUDY DURATION: 2 YR), Tumor Site: Type of Lesion: LIVER: HEPATOCELLULAR ADENOMA, HEPATOCELLULAR ADENOMA OR CARCINOMA, KIDNEY: TUBULAR ADENOMA, TUBULAR ADENOMA OR CARCINOM",active; positive
same,carcinogen call,"Species: RAT, Strain/Sex: STRAIN-CD/MALE, Route: INHALATION, Dose: 0, 1, 5, 25 PPM 6 HR/D 5 D/WK FOR 2 YR (STUDY DURATION: 2 YR), Dose: 0, 1, 5, 25 PPM 6 HR/D 5 D/WK FOR 2 YR (STUDY DURATION: 2 YR), Tumor Site: Type of Lesion: LIVER: HEPATOCELLULAR ADENOMA, HEPATOCELLULAR ADENOMA OR CARCINOMA",active; positive
O[C@@H]1c2ccccc2-c2nc3ccccc3cc2[C@H]1O,carcinogen call,"Species: MOUSE, Strain/Sex: SWISS/FEMALE, Route: INTRAPERITONEAL, Dose: 0, 1.05 UMOL GIVEN AS 150 NMOL IN 5 µL DMSO WITHIN 24 HR OF BIRTH, 300 NMOL IN 10 µL DMSO ON D 8 OF LIFE, AND 600 NMOL I",inactive; negative
same,carcinogen call,"Species: MOUSE, Strain/Sex: SWISS/MALE, Route: INTRAPERITONEAL, Dose: 0, 1.05 UMOL GIVEN AS 150 NMOL IN 5 µL DMSO WITHIN 24 HR OF BIRTH, 300 NMOL IN 10 µL DMSO ON D 8 OF LIFE, AND 600 NMOL I",inactive; negative
COCCl,carcinogen call,"Species: MOUSE, Strain/Sex: ICR/FEMALE, Route: SUBCUTANEOUS, Dose: 300 UG IN 0.05 ML NUJOL 1/WK FOR 685 D, Tumor Site: Type of Lesion: INJECTION SITE: SARCOMA",active; positive
